Results reported in US8741884B2, “Compounds for the treatment of hepatitis C” (priority 2010, dated 2014).
Read-outs that look alike come from different tables or passages of the source.

Tested on: HCV pseudoparticles (genotype 1a HCV E1 and E2 envelope, H77C isolate)
Experiment: microbe, parasite or virus in culture
Assay type: cell-based
[1] = Hepatitis C virus, Huh-7, 48 h, class symbol, HCV pseudoparticles genotype 1a (H77C), Huh7 cells, luciferase 2 days after infection, average of duplicates
[2] = Hepatitis C virus, Huh-7, 48 h, numeric value, HCV pseudoparticles genotype 1a (H77C), Huh7 cells, luciferase 2 days after infection, average of duplicates

Row | Structure (SMILES) | EC50 [1] | EC50 [2] | EC50 (read-out: EC50)
1 | FC(F)(F)COc1nc2nc(n1)Nc1cccc(c1)OCCCCOc1cccc(c1)N2 [Example 2004] | 0.1 to 100 nM | – | –
2 | O=C(NCC1(CN2CCCC2)CC1)c1ccc2cc1OCCCCCCNc1nc(nc(OCC(F)(F)F)n1)N2 [Example 4001] | 1000 to 50000 nM | 42600 nM | –
3 | COC(=O)[C@H](CNC(=O)OC(C)(C)C)NC(=O)c1ccc2cc1OCCCCCCOc1ccc(cc1)CNc1nc(nc(OCC(F)(F)F)n1)N2 [Example 1321] | 0.1 to 100 nM | – | –
4 | COC(=O)C(NC(=O)c1ccc2cc1OCCCCCCOc1ccc(cc1)CNc1nc(nc(OCC(F)(F)F)n1)N2)C1CCN(C(=O)OC(C)(C)C)C1 (stereo not drawn) [Example 1310] | 0.1 to 100 nM | – | –
5 | COC(=O)N1CCCCOc2cc(ccc2C(=O)NCC2(CN3CCCC3)CC2)Nc2nc(nc(OCC(F)(F)F)n2)NCc2ccc(cc2)OCCC1 [Example 3019] | 0.1 to 100 nM | 10.2 nM | –
6 | CC(C)OC(=O)N1CCCCOc2cc(ccc2C(=O)NCC2(CN3CCCC3)CC2)Nc2nc(nc(OCC(F)(F)F)n2)NCc2ccc(cc2)OCCC1 [Example 3021] | 0.1 to 100 nM | – | –
7 | CN(C)CC(C)(C)CNC(=O)c1ccc2cc1OCCCCCCOc1ccccc1CNc1nc(nc(OCC(F)(F)F)n1)N2 [Example 1806] | 100 to 1000 nM | – | –
8 | O=C(NCC1CCCN1)c1ccc2cc1OCCCCCCOc1ccc(cc1)CNc1nc(nc(OCC(F)(F)F)n1)N2 (stereo not drawn) [Example 1503] | 0.1 to 100 nM | – | –
9 | N=C(N)CNC(=O)c1ccc2cc1OCCCCCCCCOc1ccc(cc1)CNc1nc(nc(OCC(F)(F)F)n1)N2 [Example 1107] | 0.1 to 100 nM | – | –
10 | O=C(NCC1CCNC1)c1ccc2cc1OCCCCCCCCOc1ccc(cc1)CNc1nc(nc(OCC(F)(F)F)n1)N2 (stereo not drawn) [Example 1151] | 0.1 to 100 nM | – | –
11 | N=C(N)NCCCCNC(=O)c1ccc2cc1OCCCCCCOc1ccc(cc1)CNc1nc(nc(OCC(F)(F)F)n1)N2 [Example 1314] | 0.1 to 100 nM | – | –
12 | O=C1COCC(=O)NCc2cccc(c2)Nc2nc(nc(OCC(F)(F)F)n2)NCCN1 [Example 1015] | 1000 to 50000 nM | 3060 nM | –
13 | O=C(NCC1(CN2CCCC2)CC1)c1ccc2cc1OCCCCCCCCOc1ccc(cc1)CNc1nc(nc(OCC(F)(F)F)n1)N2 [Example 1102] | 0.1 to 100 nM | – | –
14 | O=C(NC(C(=O)O)C1CCCNC1)c1ccc2cc1OCCCCCCOc1ccc(cc1)CNc1nc(nc(OCC(F)(F)F)n1)N2 (stereo not drawn) [Example 1552] | 0.1 to 100 nM | – | –
15 | CCCN1CCCOc2ccc(cc2)CNc2nc(nc(OCC(F)(F)F)n2)Nc2ccc(C(=O)NCC3(CN4CCCC4)CC3)c(c2)OCCC1 [Example 3012] | 0.1 to 100 nM | – | –
16 | CC(C)(C)OC(=O)NC1(C(=O)O)CCN(C(=O)c2ccc3cc2OCCCCCCCCOc2ccc(cc2)CNc2nc(nc(OCC(F)(F)F)n2)N3)C1 (stereo not drawn) [Example 1018] | 1000 to 50000 nM | 5640 nM | –
17 | O=C(O)CC1CCN(C(=O)c2ccc3cc2OCCCCCCCCOc2ccc(cc2)CNc2nc(nc(OCC(F)(F)F)n2)N3)C1 (stereo not drawn) [Example 1132] | 1000 to 50000 nM | – | –
18 | COC(=O)[C@H](CNS(C)(=O)=O)NC(=O)c1ccc2cc1OCCCCCCOc1ccc(cc1)CNc1nc(nc(OCC(F)(F)F)n1)N2 [Example 1702] | 0.1 to 100 nM | – | –
19 | COC(=O)c1ccc2cc1OCC=CCOc1ccc(cc1)CNc1nc(nc(OCC(F)(F)F)n1)N2 [Example 2005] | 0.1 to 100 nM | – | –
20 | COC(=O)c1ccc2cc1OCCCN(C(=O)OC(C)(C)C)CCCOc1ccc(cc1)CNc1nc(nc(OCC(F)(F)F)n1)N2 [Example 3001] | 0.1 to 100 nM | – | –
21 | O=C(NC1CCCNC1)c1ccc2cc1OCCCCCCCCOc1ccc(cc1)CNc1nc(nc(OCC(F)(F)F)n1)N2 (stereo not drawn) [Example 1013] | 0.1 to 100 nM | – | –

Row | Structure (SMILES) | EC50 [1] | EC50 [2] | EC50 (read-out: EC50)
22 | FC(F)(F)COc1nc2nc(n1)NC1(CC1)c1ccc(cc1)OCCCCOc1cccc(c1)N2 [Example 2009] | 0.1 to 100 nM | 18 nM | –
23 | O=C(c1ccc2cc1OCCCCCCCCOc1ccc(cc1)CNc1nc(nc(OCC(F)(F)F)n1)N2)N1CCC2(CCNC2)C1 (stereo not drawn) [Example 1153] | 100 to 1000 nM | – | –
24 | O=C1NCCNc2nc(nc(OCC(F)(F)F)n2)Nc2cccc(c2)CNC(=O)OCCO1 [Example 1014] | 1000 to 50000 nM | – | –
25 | CNC(=O)N1CCCOc2ccc(cc2)CNc2nc(nc(OCC(F)(F)F)n2)Nc2ccc(C(=O)NCC3(CN4CCCC4)CC3)c(c2)OCCC1 [Example 3007] | 0.1 to 100 nM | – | –
26 | CN(C)CC(C)(C)CNC(=O)c1ccc2cc1OCCOCCOCCOc1ccc(cc1)CNc1nc(nc(OCC(F)(F)F)n1)N2 [Example 1011] | 0.1 to 100 nM | – | –
27 | N=C(N)NC[C@H](NC(=O)c1ccc2cc1OCCCCCCOc1ccc(cc1)CNc1nc(nc(OCC(F)(F)F)n1)N2)C(=O)O [Example 1403] | 0.1 to 100 nM | – | –
28 | CCN1CCCOc2ccc(cc2)CNc2nc(nc(OCC(F)(F)F)n2)Nc2ccc(C(=O)NCC3(CN4CCCC4)CC3)c(c2)OCCC1 [Example 3011] | 0.1 to 100 nM | – | –
29 | CN(C)CC(C)(C)CNC(=O)c1ccc2cc1OCCCCCCOc1ccc(cc1)CNc1nc(nc(OCC(F)(F)F)n1)N2 [Example 1202] | 0.1 to 100 nM | – | –
30 | O=C(NCC1(CN2CCCC2)CC1)c1ccc2cc1OCC=CCOc1ccc(cc1)CNc1nc(nc(OCC(F)(F)F)n1)N2 [Example 2006] | 0.1 to 100 nM | – | –
31 | COc1nc2nc(n1)OCc1cccc(c1)Nc1nc(nc(OCC(F)(F)F)n1)NCCN2 [Example 1002] | 1000 to 50000 nM | – | –
32 | CN(C)CC(C)(C)CNC(=O)c1ccc2cc1OCC=CCOc1ccc(cc1)CNc1nc(nc(OCC(F)(F)F)n1)N2 [Example 2007] | 100 to 1000 nM | 159 nM | –
33 | O=C(O)c1ccc2cc1OCCCCOC[C@H](c1ccccc1)Nc1nc(nc(OCC(F)(F)F)n1)N2 [Example 1004] | – | – | 1000 to 50000 nM
34 | COC(=O)c1ccc2cc1OCCCCOc1cccc(c1)CNc1nc(nc(OCC(F)(F)F)n1)N2 [Example 1801] | 100 to 1000 nM | – | –
35 | CC(C)(C)OC(=O)N[C@@H](CCNC(=O)c1ccc2cc1OCCCCCCOc1ccc(cc1)CNc1nc(nc(OCC(F)(F)F)n1)N2)C(=O)O [Example 1411] | 0.1 to 100 nM | – | –
36 | COC(=O)c1ccc2cc1OCCOCCOCCOc1ccc(cc1)CNc1nc(nc(OCC(F)(F)F)n1)N2 [Example 1007] | 1000 to 50000 nM | 9840 nM | –
37 | CC(C)(C)OC(=O)N[C@H](CCNC(=O)c1ccc2cc1OCCCCCCOc1ccc(cc1)CNc1nc(nc(OCC(F)(F)F)n1)N2)C(=O)O [Example 1412] | 0.1 to 100 nM | 24.8 nM | –
38 | CC(C)(C)OC(=O)N1CCCOc2cccc(c2)CNc2nc(nc(OCC(F)(F)F)n2)Nc2ccc(C(=O)NCC3(CN4CCCC4)CC3)c(c2)OCCC1 [Example 3024] | 100 to 1000 nM | – | –
39 | O=C(NCCC[C@H](NC(=O)c1ccc2cc1OCCCCCCOc1ccc(cc1)CNc1nc(nc(OCC(F)(F)F)n1)N2)C(=O)O)OCc1ccccc1 [Example 1413] | 0.1 to 100 nM | – | –
40 | COC(=O)c1ccc2cc1OCCCCOC[C@H](c1ccccc1)Nc1nc(nc(OCC(F)(F)F)n1)N2 [Example 1003] | – | – | 1000 to 50000 nM
41 | COC(=O)[C@H](CNC(C)=O)NC(=O)c1ccc2cc1OCCCCCCOc1ccc(cc1)CNc1nc(nc(OCC(F)(F)F)n1)N2 [Example 1701] | 0.1 to 100 nM | – | –
42 | COC(=O)[C@H](CNC(=O)c1ccccc1)NC(=O)c1ccc2cc1OCCCCCCOc1ccc(cc1)CNc1nc(nc(OCC(F)(F)F)n1)N2 [Example 1323] | 0.1 to 100 nM | – | –

Row | Structure (SMILES) | EC50 [1] | EC50 [2] | EC50 (read-out: EC50)
43 | CC(C)(C)OC(=O)NC[C@H](NC(=O)c1ccc2cc1OCCCCCCOc1ccc(cc1)CNc1nc(nc(OCC(F)(F)F)n1)N2)C(=O)O [Example 1560] | 0.1 to 100 nM | – | –
44 | N=C(N)NCCC[C@@H](NC(=O)c1ccc2cc1OCCOCCOCCOc1ccc(cc1)CNc1nc(nc(OCC(F)(F)F)n1)N2)C(=O)O [Example 1603] | 0.1 to 100 nM | – | –
45 | C=C1COc2ccc(cc2)CNc2nc(nc(OCC(F)(F)F)n2)Nc2ccc(C(=O)NCC3(CN4CCCC4)CC3)c(c2)OC1 [Example 1006] | 1000 to 50000 nM | – | –
46 | COC(=O)[C@@H](CNC(=O)OC(C)(C)C)NC(=O)c1ccc2cc1OCCCCCCOc1ccc(cc1)CNc1nc(nc(OCC(F)(F)F)n1)N2 [Example 1309] | 100 to 1000 nM | – | –
47 | O=C(NCC1CCNC1)c1ccc2cc1OCCCCCCOc1ccc(cc1)CNc1nc(nc(OCC(F)(F)F)n1)N2 (stereo not drawn) [Example 1501] | 0.1 to 100 nM | – | –
48 | CC(C)NC(=O)N1CCCOc2ccc(cc2)CNc2nc(nc(OCC(F)(F)F)n2)Nc2ccc(C(=O)NCC3(CN4CCCC4)CC3)c(c2)OCCC1 [Example 3009] | 0.1 to 100 nM | – | –
49 | COC(=O)N1CCCOc2ccc(cc2)CNc2nc(nc(OCC(F)(F)F)n2)Nc2ccc(C(=O)NCC3(CN4CCCC4)CC3)c(c2)OCCC1 [Example 3004] | 0.1 to 100 nM | – | –
50 | CC(C)(C)OC(=O)N1CCC2(CCN(C(=O)c3ccc4cc3OCCCCCCCCOc3ccc(cc3)CNc3nc(nc(OCC(F)(F)F)n3)N4)C2)C1 (stereo not drawn) [Example 1109] | 100 to 1000 nM | – | –
51 | COC(=O)[C@H](CCNC(=O)OC(C)(C)C)NC(=O)c1ccc2cc1OCCCCCCOc1ccc(cc1)CNc1nc(nc(OCC(F)(F)F)n1)N2 [Example 1307] | 0.1 to 100 nM | – | –
52 | COC(=O)CCNC(=O)c1ccc2cc1OCCCCCCOc1ccc(cc1)CNc1nc(nc(OCC(F)(F)F)n1)N2 [Example 1303] | 100 to 1000 nM | – | –
53 | CN1CCCOc2ccc(cc2)CNc2nc(nc(OCC(F)(F)F)n2)Nc2ccc(C(=O)NCC3(CN4CCCC4)CC3)c(c2)OCCC1 [Example 3010] | 0.1 to 100 nM | – | –
54 | CN(C)CC(C)(C)CNC(=O)c1ccc2cc1OCCCCCOc1ccc(cc1)CNc1nc(nc(OCC(F)(F)F)n1)N2 [Example 1009] | 0.1 to 100 nM | – | –
55 | FC(F)(F)COc1nc2nc(n1)Nc1cccc(c1)OCC=CCOc1cccc(c1)N2 [Example 2003] | 0.1 to 100 nM | – | –
56 | O=C1NCCCCCCNc2nc(nc(OCC(F)(F)F)n2)Nc2cccc1c2 [Example 1001] | 1000 to 50000 nM | – | –
57 | CCOC(=O)[C@H](CCCNC(=N)N)NC(=O)c1ccc2cc1OCCCCCCOc1ccc(cc1)CNc1nc(nc(OCC(F)(F)F)n1)N2 [Example 1317] | 0.1 to 100 nM | – | –
58 | CN(C)CC(C)(C)CNC(=O)c1ccc2cc1OCCCCCCOCC(c1ccccc1)Nc1nc(nc(OCC(F)(F)F)n1)N2 (stereo not drawn) [Example 1807] | 1000 to 50000 nM | – | –
59 | COC(=O)C(NC(=O)c1ccc2cc1OCCCCCCCCOc1ccc(cc1)CNc1nc(nc(OCC(F)(F)F)n1)N2)C1CCCN(C(=O)OC(C)(C)C)C1 (stereo not drawn) [Example 1106] | 0.1 to 100 nM | – | –
60 | COC(=O)c1ccc2cc1OCCCCNCCCOc1ccc(cc1)CNc1nc(nc(OCC(F)(F)F)n1)N2 [Example 3015] | 0.1 to 100 nM | – | –
61 | CC(C)(C)OC(=O)NC[C@H](NC(=O)c1ccc2cc1OCCCCCCOc1ccc(cc1)CNc1nc(nc(OCC(F)(F)F)n1)N2)C(N)=O [Example 1700] | 0.1 to 100 nM | – | –
